Laboratory results taken from patent publication US9078871B2, “Estrogen receptor modulators and uses thereof” (SERAGON PHARMACEUTICALS, INC., priority 2010, dated 2015).
Values belong to the compound of their own block, whether it stands above or below them.

Columns and labels:
[1] = system: MCF-7 cells; test: Breast Cancer Cell Viability Assay (MCF7 Viability Assay); type: cell-based; conditions: 5 days' compound exposure, CellTiter-Glo; for IC50: Homo sapiens, MCF7, 120 h
Method: MCF-7 cells were adjusted to a concentration of 20,000 cells per mL in RPMI containing 10% FBS and 20 mM HEPES. 16 microliters of the cell suspension (320 cells) was added to each well of a 384 well plate, and the cells were incubated overnight to allow the cells to adhere. The following day an eleven point, serial semilog dilution of each compound was added to the cells in 16 μL at a final concentration ranging from 0.3-0.000003 μM. After 5 days' compound exposure, 16 μL of CellTiter-GLo (Promega, Madison Wis.) was added to the cells the relative luminescence units (RLUs) of each well was determined. CellTiter-Glo added to 32 μL of medium without cells was used to obtain a background value. The Percent viability of each sample was determined as follows: (RLU sample-RLU background/RLU untreated cells-RLU background)×100=% viability.

[2] = biological target: T1, ER-α (Homo sapiens, UniProt P03372); test: ER-α in Cell Western Assay (SP1); type: cell-based; conditions: MCF-7 cells, SP1 rabbit monoclonal Ab, 4 or 24 hr post compound addition, read-out: ER In-Cell Western Assay (SP1); for Emax: MCF7, Max Response; for DC50: IC50
T1 construct: endogenous in cells; host or cells: MCF-7
T1 sequence (P03372 1-595): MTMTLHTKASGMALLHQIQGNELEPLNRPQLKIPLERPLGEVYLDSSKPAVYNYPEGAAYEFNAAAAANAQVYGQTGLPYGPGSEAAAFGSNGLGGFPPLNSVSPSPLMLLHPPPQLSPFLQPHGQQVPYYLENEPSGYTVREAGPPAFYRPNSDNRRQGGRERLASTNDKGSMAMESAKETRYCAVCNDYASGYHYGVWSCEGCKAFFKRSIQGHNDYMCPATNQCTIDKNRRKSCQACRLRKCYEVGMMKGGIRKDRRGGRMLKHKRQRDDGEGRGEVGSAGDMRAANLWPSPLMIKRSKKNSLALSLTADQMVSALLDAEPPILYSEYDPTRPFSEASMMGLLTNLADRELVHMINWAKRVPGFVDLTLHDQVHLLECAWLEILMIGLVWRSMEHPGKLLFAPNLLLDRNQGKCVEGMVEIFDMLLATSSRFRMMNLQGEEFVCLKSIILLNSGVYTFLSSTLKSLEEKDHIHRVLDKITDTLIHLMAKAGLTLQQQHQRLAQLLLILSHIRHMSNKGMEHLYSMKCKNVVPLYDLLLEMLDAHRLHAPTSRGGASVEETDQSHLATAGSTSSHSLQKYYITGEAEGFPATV
Method: MCF-7 cells were adjusted to a concentration of 200,000 cells per mL in RPMI containing 10% charcoal-stripped FBS and 20 mM HEPES. 16 microliters of the cell suspension (3200 cells) was added to each well of a poly-D-lysine 384 well plate, and the cells were incubated overnight to allow the cells to adhere. The following day an eleven point, serial semilog dilution of each compound was added to the cells in 16 μL at a final concentration ranging from 0.3-0.000003 μM. At 4 or 24 hr post compound addition, the cells were fixed (10% formalin in PBS) for 20 minutes. Cells were permeabalized in PBS 0.1% Triton and blocked with LICOR blocking buffer (50 μl/well, 90′). The wells were then incubated overnight at 4° C. with SP1 rabbit monoclonal Ab (Thermo Scientific) diluted 1:1000 in LICOR blocking buffer/0.1% Tween-20. Wells which were treated with blocking buffer with Tween but no antibody were used as a background control. Wells were washed with 0.1% Tween-20/PBS and then incubated in goat anti-rabbit IRDye™ 800CW (LICOR Inc.; 1:1000) and DRAQ5 DNA dye (1:2000 for 2 mM stock) diluted in LICOR blocking buffer containing 0.1% Tween-20 and 0.01% SDS for 60 minutes. Cells were washed (50 μl/well, 5′ each) in 0.1% Tween-20/PBS. Plates were scanned on a LICOR Odyssey infrared imaging system. Integrated intensities in the 800 nm channel and 700 nm channel were measured to determine levels of ER and DNA respectively. Percent ER levels were determined as follows: (Integrated intensity 800 nm sample/integrated intensity 700 nm sample)/(Integrated intensity 800 nm untreated cells/integrated intensity 700 nm untreated cells)×100=% ER levels.

SMILES: CC1=C(c2cc(O)c(F)c(F)c2)C(c2ccc(OC[C@H](C)N3CC[C@@H](C)C3)cc2)Oc2ccc(O)cc21 (stereo partly drawn) [Example 49, 3-(3,4-Difluoro-5-hydroxyphenyl)-4-methyl-2-(4-((S)-2-((R)-3-methylpyrrolidin-1-yl)propoxy)phenyl)-2H-chromen-6-ol]
- MCF7 Viability Assay Max Response [1]: ++ (++ = a single % value ≧50%)
- IC50 [1]: ≤ 1 nM
- Emax [2]: ≥ 85%
- DC50 [2]: ≤ 1 nM

SMILES: CC1=C(c2cccc(O)c2)C(c2ccc(OC[C@H](C)N3CC[C@@H](F)C3)cc2)Oc2ccc(O)cc21 (stereo partly drawn) [Example 64, 2-(4-((S)-2-((R)-3-Fluoropyrrolidin-1-yl)propoxy)phenyl)-3-(3-hydroxyphenyl)-4-methyl-2H-chromen-6-ol]
- MCF7 Viability Assay Max Response [1]: ++ (++ = a single % value ≧50%)
- IC50 [1]: ≤ 1 nM
- Emax [2]: ≥ 85%
- DC50 [2]: ≤ 1 nM

SMILES: CC1=C(c2ccc(F)c(O)c2F)C(c2ccc(OC[C@H](C)N3CC[C@@H](C)C3)cc2)Oc2ccc(O)cc21 (stereo partly drawn) [Example 48, 3-(2,4-Difluoro-3-hydroxyphenyl)-4-methyl-2-(4-((S)-2-((R)-3-methylpyrrolidin-1-yl)propoxy)phenyl)-2H-chromen-6-ol]
- MCF7 Viability Assay Max Response [1]: ++ (++ = a single % value ≧50%)
- IC50 [1]: > 1 nM
- Emax [2]: ≥ 85%
- DC50 [2]: ≤ 1 nM

SMILES: CC1=C(c2ccc(F)cc2)[C@H](c2ccc(OC[C@H](C)N3CC[C@@H](C)C3)cc2)Oc2ccc(O)cc21 (single isomer, unassigned) [Example 30a]
- MCF7 Viability Assay Max Response [1]: ++ (++ = a single % value ≧50%)
- IC50 [1]: ≤ 1 nM
- Emax [2]: 60 to 85%
- DC50 [2]: ≤ 1 nM

SMILES: CC1=C(c2ccc(F)cc2)[C@@H](c2ccc(OC[C@H](C)N3CC[C@@H](C)C3)cc2)Oc2ccc(O)cc21 (single isomer, unassigned) [Example 30b]
- MCF7 Viability Assay Max Response [1]: ++ (++ = a single % value ≧50%)
- IC50 [1]: > 1 nM
- Emax [2]: 60 to 85%
- DC50 [2]: > 1 nM

Further lines, with some results ahead:

- IC50 [1]: ≤ 1 nM
- Emax [2]: ≥ 85%
- DC50 [2]: ≤ 1 nM
SMILES: CC1=C(c2cc(O)ccc2F)C(c2ccc(OC[C@H](C)N3CC[C@@H](C)C3)cc2)Oc2ccc(O)cc21 (stereo partly drawn) [Example 62, 3-(2-Fluoro-5-hydroxyphenyl)-4-methyl-2-(4-((S)-2-((R)-3-methylpyrrolidin-1-yl)propoxy)phenyl)-2H-chromen-6-ol]
- MCF7 Viability Assay Max Response [1]: ++ (++ = a single % value ≧50%)

- IC50 [1]: > 1 nM
- Emax [2]: 60 to 85%
- DC50 [2]: ≤ 1 nM
SMILES: CC1=C(c2ccc(F)cc2)C(c2ccc(OC[C@H](C)N3CC4CC4C3)cc2)Oc2ccc(O)cc21 (stereo partly drawn) [Example 71, 2-(4-((2S)-2-(3-Azabicyclo[3.1.0]hexan-3-yl)propoxy)phenyl)-3-(4-fluorophenyl)-4-methyl-2H-chromen-6-ol]
- MCF7 Viability Assay Max Response [1]: ++ (++ = a single % value ≧50%)

- IC50 [1]: ≤ 1 nM
- Emax [2]: 60 to 85%
- DC50 [2]: ≤ 1 nM
SMILES: CC1=C(c2ccc(O)cc2C)C(c2ccc(OC[C@H](C)N3CC[C@@H](C)C3)cc2)Oc2ccc(O)cc21 (stereo partly drawn) [Example 41, 3-(4-Hydroxy-2-methylphenyl)-4-methyl-2-(4-((S)-2-((R)-3-methylpyrrolidin-1-yl)propoxy)phenyl)-2H-chromen-6-ol]
- MCF7 Viability Assay Max Response [1]: ++ (++ = a single % value ≧50%)

- IC50 [1]: ≤ 1 nM
- Emax [2]: ≥ 85%
- DC50 [2]: ≤ 1 nM
SMILES: CC1=C(c2cccc(O)c2F)C(c2ccc(OC[C@H](C)N3CC[C@@H](C)C3)cc2)Oc2ccc(O)cc21 (stereo partly drawn) [Example 60, 3-(2-Fluoro-3-hydroxyphenyl)-4-methyl-2-(4-((S)-2-((R)-3-methylpyrrolidin-1-yl)propoxy)phenyl)-2H-chromen-6-ol]
- MCF7 Viability Assay Max Response [1]: ++ (++ = a single % value ≧50%)

- IC50 [1]: > 1 nM
- Emax [2]: 60 to 85%
- DC50 [2]: ≤ 1 nM
SMILES: CC1=C(c2ccc(O)c(C(F)(F)F)c2)C(c2ccc(OC[C@H](C)N3CC[C@@H](C)C3)cc2)Oc2ccc(O)cc21 (stereo partly drawn) [Example 69, 3-(4-Hydroxy-3-(trifluoromethyl)phenyl)-4-methyl-2-(4-((S)-2-((R)-3-methylpyrrolidin-1-yl)propoxy)phenyl)-2H-chromen-6-ol]
- MCF7 Viability Assay Max Response [1]: ++ (++ = a single % value ≧50%)
